Data reported in patent US20260262643A1, “HERBICIDAL BENZOXAZINES” (FMC CORPORATION, priority 2022, published 2026).

Columns and labels:
ryegrass, Italian [1] = experiment: Test A postemergence; type: in vivo, Lolium multiflorum
Outline: (§1)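 Visual injury ratings on a 0–100 scale (100 = complete control) versus untreated controls, taken 10 days after treatment in greenhouse. Preemergence: directed soil spray onto seeded loam/sand. Postemergence: foliar application at one- to two-leaf stage, plants 2–10 cm. Formulation: non-phytotoxic solvent plus surfactant.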

corn [2] = experiment: Test A postemergence; type: in vivo, Zea mays; settings: postemergence, 10 days
Outline: as §1

horseweed = experiment: Test A postemergence; type: in vivo, Erigeron canadensis
Outline: as §1

ragweed [3] = experiment: Test A preemergence; type: in vivo, Ambrosia artemisiifolia
Outline: as §1

pigweed, palmer [4] = experiment: Test A preemergence; type: in vivo, Amaranthus palmeri
Outline: as §1

oat, wild [5] = experiment: Test A preemergence; type: in vivo, Avena fatua; settings: visual injury after 10 days, 0 to 100 scale, 0 is no effect, 100 is complete control
Outline: as §1

galium = experiment: Test A postemergence; type: in vivo, Galium aparine
Outline: as §1

pigweed, palmer [6] = experiment: Test A postemergence; type: in vivo, Amaranthus palmeri
Outline: as §1

ryegrass, Italian [7] = experiment: Test A preemergence; type: in vivo, Lolium multiflorum
Outline: as §1

foxtail, giant [8] = experiment: Test A preemergence; type: in vivo, Setaria faberi
Outline: as §1

soybean [9] = experiment: Test A preemergence; type: in vivo, Glycine max; settings: visual injury after 10 days, 0 to 100 scale, 0 is no effect, 100 is complete control
Outline: as §1

oat, wild [10] = experiment: Test A postemergence; type: in vivo, Avena fatua; settings: postemergence, 10 days
Outline: as §1

soybean [11] = experiment: Test A postemergence; type: in vivo, Glycine max; settings: postemergence, 10 days
Outline: as §1

sedge, umbrella = experiment: Test B flooded paddy test; type: in vivo, Cyperus difformis; settings: 250 g ai/ha, Flood, 13 days, 0 to 100 scale (0 no effect, 100 complete control)
Outline: (§2)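 Each species was raised to the 2-leaf stage. At treatment, each pot received floodwater 3 cm deep, with the chemical delivered into the water. Greenhouse holding followed for 13 days, then percent control was estimated visually versus untreated pots.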

kochia [12] = experiment: Test A preemergence; type: in vivo, Bassia scoparia
Outline: as §1

wheat [13] = experiment: Test A preemergence; type: in vivo, Triticum aestivum; settings: visual injury after 10 days, 0 to 100 scale, 0 is no effect, 100 is complete control
Outline: as §1

goosegrass [14] = experiment: Test A postemergence; type: in vivo, Eleusine indica; settings: postemergence, 10 days
Outline: as §1

ducksalad = experiment: Test B flooded paddy test; type: in vivo, Heteranthera limosa; settings: 250 g ai/ha, Flood, 13 days, 0 to 100 scale (0 no effect, 100 complete control)
Outline: as §2

wheat [15] = experiment: Test A postemergence; type: in vivo, Triticum aestivum; settings: postemergence, 10 days
Outline: as §1

goosegrass [16] = experiment: Test A preemergence; type: in vivo, Eleusine indica; settings: visual injury after 10 days, 0 to 100 scale, 0 is no effect, 100 is complete control
Outline: as §1

ragweed [17] = experiment: Test A postemergence; type: in vivo, Ambrosia artemisiifolia
Outline: as §1

kochia [18] = experiment: Test A postemergence; type: in vivo, Bassia scoparia
Outline: as §1

foxtail, giant [19] = experiment: Test A postemergence; type: in vivo, Setaria faberi
Outline: as §1

corn [20] = experiment: Test A preemergence; type: in vivo, Zea mays; settings: visual injury after 10 days, 0 to 100 scale, 0 is no effect, 100 is complete control
Outline: as §1

rice = experiment: Test B flooded paddy test; type: in vivo, Oryza sativa; settings: 250 g ai/ha, Flood, 13 days, 0 to 100 scale (0 no effect, 100 complete control)
Outline: as §2

blackgrass [21] = experiment: Test A postemergence; type: in vivo, Alopecurus myosuroides
Outline: as §1

barnyardgrass [22] = experiment: Test B flooded paddy test; type: in vivo, Echinochloa crus-galli; settings: 250 g ai/ha, Flood, 13 days, 0 to 100 scale (0 no effect, 100 complete control)
Outline: as §2

blackgrass [23] = experiment: Test A preemergence; type: in vivo, Alopecurus myosuroides
Outline: as §1

barnyardgrass [24] = experiment: Test A postemergence; type: in vivo, Echinochloa crusgalli; settings: 1000 g ai/ha, Postemergence; 0 to 100 scale
From the text: (§3) Seeds of plant species selected from barnyardgrass (Echinochloa crusgalli), blackgrass (Alopecurus myosuroides), corn (Zea mays), foxtail, giant (giant foxtail, Setaria faberi), goosegrass (Eleusine indica), kochia (Bassia scoparia), oat, wild (wild oat, Avena fatua), pigweed, palmer (palmer amaranth, palmer pigweed, Amaranthus palmeri), Pigweed, Redroot (redroot pigweed, Amaranthus retroflexus), ragweed (common ragweed, Ambrosia artemisiifolia), ryegrass, Italian (italian ryegrass, Lolium multiflorum), soybean (Glycine max), and wheat (Triticum aestivum) were planted into a blend of loam soil and sand and treated preemergence with a directed soil spray using test chemicals formulated in a non-phytotoxic solvent mixture which included a surfactant. At the same time, plants selected from these crops and weed species and also galium (catchweed bedstraw, Galium aparine) and horseweed (Erigeron canadensis) were planted in pots containing the same blend of loam soil and sand and treated with postemergence applications of test chemicals formulated in the same manner. Plants ranged in height from 2 to 10 cm and were in the one- to two-leaf stage for the postemergence treatment. Treated plants and untreated controls were maintained in a greenhouse for 10 days, after which time all treated plants were compared to untreated controls and visually evaluated for injury. Plant response ratings, summarized in Table A, are based on a 0 to 100 scale where 0 is no effect and 100 is complete control. A dash (-) response means no test result.

barnyardgrass [25] = experiment: Test A preemergence; type: in vivo, Echinochloa crusgalli; settings: 1000 g ai/ha, 0 to 100 scale (0 no effect, 100 complete control), 10 days
From the text: as §3

[26] = 125 g ai/ha, postemergence, 10 days, 0 to 100 scale, 0 no effect, 100 complete control
[27] = 500 g ai/ha, postemergence, 10 days, visual injury, 0 to 100 scale (0 no effect, 100 complete control)
[28] = 125 g ai/ha, 0 to 100 scale, 0 no effect, 100 complete control
[29] = 500 g ai/ha, visual injury, 0 to 100 scale (0 no effect, 100 complete control)
[30] = 125 g ai/ha, visual injury after 10 days, 0 to 100 scale, 0 is no effect, 100 is complete control
[31] = 500 g ai/ha, visual injury after 10 days, 0 to 100 scale, 0 is no effect, 100 is complete control
[32] = 1000 g ai/ha, Postemergence, 0 to 100 scale
[33] = 1000 g ai/ha, 0 to 100 scale (0 no effect, 100 complete control), 10 days

## Cc1cccc2c1O[C@@H](C)CN2C(=O)c1cccc(-n2cnn(C(C)C)c2=O)c1 [Compound 118]
ryegrass, Italian [1]; [26]
  Ryegrass, Italian plant response rating: 10
ryegrass, Italian [1]; [27]
  Plant response rating, Ryegrass, Italian: 60
Corn [2]; [28]
  Corn plant response rating: 0
Corn [2]; [29]
  Plant response rating, Corn: 70
horseweed; [26]
  Horseweed plant response rating: 0
horseweed; [27]
  Plant response rating, Horseweed: 0
Ragweed [3]; [30]
  Plant response rating, Ragweed: 0
Ragweed [3]; [31]
  Plant response rating, Ragweed: 30
pigweed, palmer [4]; [30]
  Plant response rating, Pigweed, Palmer: 40
pigweed, palmer [4]; [31]
  Plant response rating, Pigweed, Palmer: 100
oat, wild [5]; 125 g ai/ha
  Plant response rating, Oat, Wild: 30
oat, wild [5]; 500 g ai/ha
  Plant response rating, Oat, Wild: 90
galium; [26]
  Galium plant response rating: 10
galium; [27]
  Plant response rating, Galium: 30
pigweed, palmer [6]; [26]
  Pigweed, Palmer plant response rating: 0
pigweed, palmer [6]; [27]
  Plant response rating, Pigweed, Palmer: 20
ryegrass, Italian [7]; [30]
  Plant response rating, Ryegrass, Italian: 70
ryegrass, Italian [7]; [31]
  Plant response rating, Ryegrass, Italian: 100
foxtail, giant [8]; [30]
  Plant response rating, Foxtail, Giant: 20
foxtail, giant [8]; [31]
  Plant response rating, Foxtail, Giant: 100
Soybean [9]; 125 g ai/ha
  Plant response rating, Soybean: 40
Soybean [9]; 500 g ai/ha
  Plant response rating, Soybean: 60
oat, wild [10]; [28]
  Oat, Wild plant response rating: 10
oat, wild [10]; [29]
  Plant response rating, Oat, Wild: 90
Soybean [11]; [28]
  Soybean plant response rating: 40
Soybean [11]; [29]
  Plant response rating, Soybean: 80
sedge, umbrella
  Plant response rating, Sedge, Umbrella: 0
Kochia [12]; [30]
  Plant response rating, Kochia: 0
Kochia [12]; [31]
  Plant response rating, Kochia: 70
Wheat [13]; 125 g ai/ha
  Plant response rating, Wheat: 0
Wheat [13]; 500 g ai/ha
  Plant response rating, Wheat: 30
Goosegrass [14]; [28]
  Goosegrass plant response rating: 20
Goosegrass [14]; [29]
  Plant response rating, Goosegrass: 40
ducksalad
  Plant response rating, Ducksalad: 0
Wheat [15]; [28]
  Wheat plant response rating: 10
Wheat [15]; [29]
  Plant response rating, Wheat: 30
Goosegrass [16]; 125 g ai/ha
  Plant response rating, Goosegrass: 90
Goosegrass [16]; 500 g ai/ha
  Plant response rating, Goosegrass: 100
Ragweed [17]; [26]
  Ragweed plant response rating: 0
Ragweed [17]; [27]
  Plant response rating, Ragweed: 30
Kochia [18]; [26]
  Kochia plant response rating: 30
Kochia [18]; [27]
  Plant response rating, Kochia: 80
foxtail, giant [19]; [26]
  Foxtail, Giant plant response rating: 10
foxtail, giant [19]; [27]
  Plant response rating, Foxtail, Giant: 50
Corn [20]; 125 g ai/ha
  Plant response rating, Corn: 0
Corn [20]; 500 g ai/ha
  Plant response rating, Corn: 30
rice
  Plant response rating, Rice: 0
Blackgrass [21]; [26]
  Blackgrass plant response rating: 0
Blackgrass [21]; [27]
  Plant response rating, Blackgrass: 70
Barnyardgrass [22]
  Plant response rating, Barnyardgrass: 0
Blackgrass [23]; [30]
  Plant response rating, Blackgrass: 20
Blackgrass [23]; [31]
  Plant response rating, Blackgrass: 70

## Cc1cccc2c1O[C@@H](C)CN2C(=O)c1cccc(-n2cc(C(F)(F)F)cn2)c1 [Compound 130]
ryegrass, Italian [1]; [32]
  Plant response rating, Ryegrass, Italian: 0
horseweed; [32]
  Plant response rating, Horseweed: 0
Barnyardgrass [24]
  Plant response rating, Barnyardgrass: 0
Ragweed [3]; [33]
  Plant response rating, Ragweed: 0
pigweed, palmer [4]; [33]
  Plant response rating, Pigweed, Palmer: 0
galium; [32]
  Plant response rating, Galium: 0
pigweed, palmer [6]; [32]
  Plant response rating, Pigweed, Palmer: 0
ryegrass, Italian [7]; [33]
  Plant response rating, Ryegrass, Italian: 0
foxtail, giant [8]; [33]
  Plant response rating, Foxtail, Giant: 0
Barnyardgrass [25]
  Plant response rating, Barnyardgrass: 10
Kochia [12]; [33]
  Plant response rating, Kochia: 0
Ragweed [17]; [32]
  Plant response rating, Ragweed: 0
Kochia [18]; [32]
  Plant response rating, Kochia: 0
foxtail, giant [19]; [32]
  Plant response rating, Foxtail, Giant: 0
Blackgrass [21]; [32]
  Plant response rating, Blackgrass: 0
Blackgrass [23]; [33]
  Plant response rating, Blackgrass: 10

## Cc1cccc2c1O[C@@H](C)CN2C(=O)c1cccc(-n2cc(F)cn2)c1 [Compound 131]
ryegrass, Italian [1]; [32]
  Plant response rating, Ryegrass, Italian: 0
horseweed; [32]
  Plant response rating, Horseweed: 0
Barnyardgrass [24]
  Plant response rating, Barnyardgrass: 10
Ragweed [3]; [33]
  Plant response rating, Ragweed: 0
pigweed, palmer [4]; [33]
  Plant response rating, Pigweed, Palmer: 0
galium; [32]
  Plant response rating, Galium: 20
pigweed, palmer [6]; [32]
  Plant response rating, Pigweed, Palmer: 0
ryegrass, Italian [7]; [33]
  Plant response rating, Ryegrass, Italian: 60
foxtail, giant [8]; [33]
  Plant response rating, Foxtail, Giant: 60
Barnyardgrass [25]
  Plant response rating, Barnyardgrass: 10
Kochia [12]; [33]
  Plant response rating, Kochia: 0
Ragweed [17]; [32]
  Plant response rating, Ragweed: 0
Kochia [18]; [32]
  Plant response rating, Kochia: 40
foxtail, giant [19]; [32]
  Plant response rating, Foxtail, Giant: 10
Blackgrass [21]; [32]
  Plant response rating, Blackgrass: 0
Blackgrass [23]; [33]
  Plant response rating, Blackgrass: 10
